Measurements as given in ChEMBL document CHEMBL1201862, “PubChem BioAssay data set” (2004).
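1) Cells in 96-well plates. 2) Compound, 48 h, 5 concentrations. 3) Linear interpolation between surrounding doses. 4) Unreached endpoint = highest concentration. GI50 = concentration required for 50% inhibition of growth.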 The source made the active and inactive calls. No stated cut-off is given here; in the data, active = GI50 up to about 1.1 µM and inactive = higher.

Assays:
Test in all cases: NCI tumour cell line growth inhibition, 48 h
SF-268 = system: SF-268
M19-MEL = system: M19-MEL
SK-MEL-5 = system: SK-MEL-5
Malme-3M = system: Malme-3M
SNB-19 = system: SNB-19
KM-20L2 = system: KM-20L2
NCI-H460 = system: NCI-H460
OVCAR-4 = system: OVCAR-4
EKVX = system: EKVX
U-251 = system: U-251
LXFL 529 = system: LXFL 529
HL-60 = system: HL-60
HT-29 = system: HT-29
CCRF-CEM = system: CCRF-CEM
UO-31 = system: UO-31
HOP-92 = system: HOP-92
OVCAR-8 = system: OVCAR-8
K562 = system: K562
IGROV-1 = system: IGROV-1
SK-MEL-2 = system: SK-MEL-2
HOP-62 = system: HOP-62
RXF 393 = system: RXF 393
XF498 = system: XF498
SF-295 = system: SF-295
KM12 = system: KM12
RPMI-8226 = system: RPMI-8226
UACC-257 = system: UACC-257
SNB-75 = system: SNB-75
SNB-78 = system: SNB-78
SN12C = system: SN12C
A498 = system: A498
ACHN = system: ACHN
NCI-H23 = system: NCI-H23
786-0 = system: 786-0
HCT-116 = system: HCT-116
RXF 631 = system: RXF 631
A549 = system: A549
MOLT-4 = system: MOLT-4
HCC 2998 = system: HCC 2998
UACC-62 = system: UACC-62
HCT-15 = system: HCT-15
COLO 205 = system: COLO 205
LOX IMVI = system: LOX IMVI
OVCAR-5 = system: OVCAR-5
SK-OV-3 = system: SK-OV-3
NCI-H226 = system: NCI-H226
OVCAR-3 = system: OVCAR-3
SF-539 = system: SF-539
DMS-114 = system: DMS-114
DLD-1 = system: DLD-1
SK-MEL-28 = system: SK-MEL-28
DMS-273 = system: DMS-273
SW-620 = system: SW-620
M14 = system: M14
TK-10 = system: TK-10

Measured: GI50

C[C@]12Cc3conc3C(O)=C1CC[C@@H]1C2CC[C@@]2(C)C1CC[C@]2(C)O (stereo not given in full)
10.7 µM: HCT-15
inactive: SF-268 28.8 µM | M19-MEL 15.1 µM | SK-MEL-5 13.6 µM | Malme-3M 18.5 µM | SNB-19 25.3 µM | KM-20L2 13.5 µM | NCI-H460 13.6 µM | OVCAR-4 17.2 µM | EKVX 21.5 µM | U-251 19.7 µM | LXFL 529 15.1 µM | HL-60 2.09 µM | HT-29 20.6 µM | CCRF-CEM 8.97 µM | UO-31 16 µM | HOP-92 32.4 µM | OVCAR-8 23.4 µM | K562 3.97 µM | IGROV-1 19 µM | SK-MEL-2 14.3 µM | HOP-62 22.9 µM | RXF 393 18.9 µM | XF498 18.2 µM | SF-295 19.1 µM | KM12 13.7 µM | RPMI-8226 2.87 µM | UACC-257 22.4 µM | SNB-75 10.2 µM | SNB-78 22.4 µM | SN12C 33 µM | A498 16.1 µM | ACHN 26.5 µM | NCI-H23 19.5 µM | 786-0 22.7 µM | HCT-116 16.3 µM | RXF 631 21.6 µM | A549 28.1 µM | MOLT-4 15.2 µM | HCC 2998 21.1 µM | UACC-62 10.4 µM | COLO 205 20.4 µM | LOX IMVI 1.79 µM | OVCAR-5 29.2 µM | SK-OV-3 24.3 µM | NCI-H226 14.8 µM | OVCAR-3 18.4 µM | SF-539 21.8 µM | DMS-114 16.4 µM | DLD-1 16.5 µM | SK-MEL-28 19.9 µM | DMS-273 9.04 µM | SW-620 21.1 µM | M14 16 µM | TK-10 24 µM
